EC50 data for twelve molecules are collected here from patent US9499550B2 (BRISTOL-MYERS SQUIBB COMPANY, priority 2012, dated 2016).

Assay [1] concerns HCV genotype 1a (H77 strain) replicon in HUH-7 cells. As to the kind of experiment: HCV replicon luciferase reporter assay, genotype 1a. To be noted: Hepatitis C virus, Huh-7, 72 h, HCV genotype 1a replicon luciferase assay, 3 days incubation, range class, read-out: LE_1a (EC50, range). The format is cell-based. A digest of the protocol:
(§1)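 Replicon inhibition for both genotypes was measured as Renilla luciferase signal (EnduRen, 7.5 μM final, 2 h) after 3-day, 37° C exposure of replicon-bearing HUH-7 cells in 4% FCS DMEM, 0.5% DMSO. The 1b construct carries S1179I; the 1a H77 construct carries P1496L and S2204I. Twenty-point, 3-fold dilutions were fitted four-parametrically for EC50, and CC50 was taken from multiplexed Cell Titer-Blue.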

Assay [2] relates to HCV genotype 1b (Con1) replicon in HUH-7 cells. As to the kind of experiment: HCV replicon luciferase reporter assay, genotype 1b. The class given is cell-based. Particulars: Hepatitis C virus, Huh-7, 72 h, HCV genotype 1b replicon luciferase assay, 3 days incubation, range class, read-out: LE_1b (EC50, range). A digest of the protocol:
as §1

Regarding `CCCOc1cc2c(Cl)cccc2c(O[C@@H]2C[C@H]3C(=O)N[C@]4(C(=O)NS(=O)(=O)C5CC5)C[C@H]4/C=C\CC[C@H](C)C[C@@H](C)[C@H](NC(=O)O[C@H](C)C(F)(F)F)C(=O)N3C2)n1` [Compound 1081, (R)-1,1,1-trifluoropropan-2-yl ((2R,6S,7R,9S,13aS,14aR,16aS,Z)-2-((5-chloro-3-propoxyisoquinolin-1-yl)oxy)-14a-((cyclopropylsulfonyl)carbamoyl)-7,9-dimethyl-5,16-dioxo-1,2,3,5,6,7,8,9,10,11,13a,14,14a,15,16,16a-hexadecahydrocyclopropa[e]pyrrolo[1,2-a][1,4]diazacyclopentadecin-6-yl)carbamate], the 50% effective concentration (EC50) was 4.82 to 103 nM in assay [1] and less than 5.46 nM in assay [2].
For `CCCOc1cc2c(Cl)cccc2c(O[C@@H]2C[C@H]3C(=O)N[C@]4(C(=O)NS(=O)(=O)C5CC5)C[C@H]4/C=C\CC[C@@H](C)C[C@@H](C)[C@H](NC(=O)O[C@H](C)C(F)(F)F)C(=O)N3C2)n1` [Compound 1082, (R)-1,1,1-trifluoropropan-2-yl ((2R,6S,7R,9R,13aS,14aR,16aS,Z)-2-((5-chloro-3-propoxyisoquinolin-1-yl)oxy)-14a-((cyclopropylsulfonyl)carbamoyl)-7,9-dimethyl-5,16-dioxo-1,2,3,5,6,7,8,9,10,11,13a,14,14a,15,16,16a-hexadecahydrocyclopropa[e]pyrrolo[1,2-a][1,4]diazacyclopentadecin-6-yl)carbamate], in that order: less than 5.46 nM and less than 5.46 nM.
In the case of `CCCOc1cc2c(Cl)cccc2c(O[C@@H]2C[C@H]3C(=O)N[C@]4(C(=O)NS(=O)(=O)C5CC5)C[C@H]4/C=C\CC[C@H](C)C[C@@H](C)[C@H](NC(=O)OC(C)(C)C(F)(F)F)C(=O)N3C2)n1` [Compound 1083, 1,1,1-trifluoro-2-methylpropan-2-yl((2R,6S,7R,9S,13aS,14aR,16aS,Z)-2-((5-chloro-3-propoxyisoquinolin-1-yl)oxy)-14a-((cyclopropylsulfonyl)carbamoyl)-7,9-dimethyl-5,16-dioxo-1,2,3,5,6,7,8,9,10,11,13a,14,14a,15,16,16a-hexadecahydrocyclopropa[e]pyrrolo[1,2-a][1,4]diazacyclopentadecin-6-yl)carbamate], the results for the EC50 in assay [1] and in assay [2] were 4.82 to 103 nM and less than 5.46 nM, respectively.
For `CCCOc1cc2c(Cl)cccc2c(O[C@@H]2C[C@H]3C(=O)N[C@]4(C(=O)NS(=O)(=O)C5CC5)C[C@H]4/C=C\CC[C@@H](C)C[C@@H](C)[C@H](NC(=O)OC(C)(C)C(F)(F)F)C(=O)N3C2)n1` [Compound 1084, 1,1,1-trifluoro-2-methylpropan-2-yl((2R,6S,7R,9R,13aS,14aR,16aS,Z)-2-((5-chloro-3-propoxyisoquinolin-1-yl)oxy)-14a-((cyclopropylsulfonyl)carbamoyl)-7,9-dimethyl-5,16-dioxo-1,2,3,5,6,7,8,9,10,11,13a,14,14a,15,16,16a-hexadecahydrocyclopropa[e]pyrrolo[1,2-a][1,4]diazacyclopentadecin-6-yl)carbamate], in that order: less than 5.46 nM and less than 5.46 nM.
For `CCCOc1cc2c(Cl)cccc2c(O[C@@H]2C[C@H]3C(=O)N[C@]4(C(=O)NS(=O)(=O)C5CC5)C[C@H]4/C=C\CC[C@H](C)C[C@@H](C)[C@H](NC(=O)OC4C[C@@H]5C[C@H]5C4)C(=O)N3C2)n1` [Compound 1085, (1S,5S)-bicyclo[3.1.0]hexan-3-yl((2R,6S,7R,9S,13aS,14aR,16aS,Z)-2-((5-chloro-3-propoxyisoquinolin-1-yl)oxy)-14a-((cyclopropylsulfonyl)carbamoyl)-7,9-dimethyl-5,16-dioxo-1,2,3,5,6,7,8,9,10,11,13a,14,14a,15,16,16a-hexadecahydrocyclopropa[e]pyrrolo[1,2-a][1,4]diazacyclopentadecin-6-yl)carbamate] the same measures were less than 5.46 nM and less than 5.46 nM.
`CCCOc1cc2c(Cl)cccc2c(O[C@@H]2C[C@H]3C(=O)N[C@]4(C(=O)NS(=O)(=O)C5CC5)C[C@H]4/C=C\CC[C@@H](C)C[C@@H](C)[C@H](NC(=O)OC4C[C@@H]5C[C@H]5C4)C(=O)N3C2)n1` [Compound 1086, (1S,5S)-bicyclo[3.1.0]hexan-3-yl((2R,6S,7R,9R,13aS,14aR,16aS,Z)-2-((5-chloro-3-propoxyisoquinolin-1-yl)oxy)-14a-((cyclopropylsulfonyl)carbamoyl)-7,9-dimethyl-5,16-dioxo-1,2,3,5,6,7,8,9,10,11,13a,14,14a,15,16,16a-hexadecahydrocyclopropa[e]pyrrolo[1,2-a][1,4]diazacyclopentadecin-6-yl)carbamate]: the EC50 in assay [1] and in assay [2] was less than 5.46 nM throughout.
Take `CCCOc1cc2c(Cl)cccc2c(O[C@@H]2C[C@H]3C(=O)N[C@]4(C(=O)NS(=O)(=O)C5(C)CC5)C[C@H]4/C=C\CC[C@H](C)C[C@@H](C)[C@H](NC(=O)OC4C[C@@H]5C[C@H]5C4)C(=O)N3C2)n1` [Compound 1087, (1S,5S)-bicyclo[3.1.0]hexan-3-yl((2R,6S,7R,9S,13aS,14aR,16aS,Z)-2-((5-chloro-3-propoxyisoquinolin-1-yl)oxy)-7,9-dimethyl-14a-(((1-methylcyclopropyl)sulfonyl)carbamoyl)-5,16-dioxo-1,2,3,5,6,7,8,9,10,11,13a,14,14a,15,16,16a-hexadecahydrocyclopropa[e]pyrrolo[1,2-a][1,4]diazacyclopentadecin-6-yl)carbamate]: the EC50 in assay [1] was 4.82 to 103 nM; in assay [2], less than 5.46 nM.
For `CCCOc1cc2c(Cl)cccc2c(O[C@@H]2C[C@H]3C(=O)N[C@]4(C(=O)NS(=O)(=O)C5(C)CC5)C[C@H]4/C=C\CC[C@@H](C)C[C@@H](C)[C@H](NC(=O)OC4C[C@@H]5C[C@H]5C4)C(=O)N3C2)n1` [Compound 1088, (1S,5S)-bicyclo[3.1.0]hexan-3-yl((2R,6S,7R,9R,13aS,14aR,16aS,Z)-2-((5-chloro-3-propoxyisoquinolin-1-yl)oxy)-7,9-dimethyl-14a-(((1-methylcyclopropyl)sulfonyl)carbamoyl)-5,16-dioxo-1,2,3,5,6,7,8,9,10,11,13a,14,14a,15,16,16a-hexadecahydrocyclopropa[e]pyrrolo[1,2-a][1,4]diazacyclopentadecin-6-yl)carbamate], in that order: less than 5.46 nM and less than 5.46 nM.
For `CC(C)Oc1cc2c(Cl)cccc2c(O[C@@H]2C[C@H]3C(=O)N[C@]4(C(=O)NS(=O)(=O)C5(C)CC5)C[C@H]4/C=C\CC[C@H](C)C[C@@H](C)[C@H](NC(=O)OC(C)(C)C)C(=O)N3C2)n1` [Compound 1089, tert-butyl ((2R,6S,7R,9S,13aS,14aR,16aS,Z)-2-((5-chloro-3-isopropoxyisoquinolin-1-yl)oxy)-7,9-dimethyl-14a-(((1-methylcyclopropyl)sulfonyl)carbamoyl)-5,16-dioxo-1,2,3,5,6,7,8,9,10,11,13a,14,14a,15,16,16a-hexadecahydrocyclopropa[e]pyrrolo[1,2-a][1,4]diazacyclopentadecin-6-yl)carbamate], in that order: 4.82 to 103 nM and less than 5.46 nM.
For `CC(C)Oc1cc2c(Cl)cccc2c(O[C@@H]2C[C@H]3C(=O)N[C@]4(C(=O)NS(=O)(=O)C5(C)CC5)C[C@H]4/C=C\CC[C@@H](C)C[C@@H](C)[C@H](NC(=O)OC(C)(C)C)C(=O)N3C2)n1` [Compound 1090, tert-butyl ((2R,6S,7R,9R,13aS,14aR,16aS,Z)-2-((5-chloro-3-isopropoxyisoquinolin-1-yl)oxy)-7,9-dimethyl-14a-(((1-methylcyclopropyl)sulfonyl)carbamoyl)-5,16-dioxo-1,2,3,5,6,7,8,9,10,11,13a,14,14a,15,16,16a-hexadecahydrocyclopropa[e]pyrrolo[1,2-a][1,4]diazacyclopentadecin-6-yl)carbamate], in that order: less than 5.46 nM and less than 5.46 nM.
Consider `CC(C)Oc1cc2c(Cl)cccc2c(O[C@@H]2C[C@H]3C(=O)N[C@]4(C(=O)NS(=O)(=O)C5CC5)C[C@H]4/C=C\CC[C@H](C)C[C@@H](C)[C@H](NC(=O)OC(C)(C)C)C(=O)N3C2)n1` [Compound 1091, tert-butyl ((2R,6S,7R,9S,13aS,14aR,16aS,Z)-2-((5-chloro-3-isopropoxyisoquinolin-1-yl)oxy)-14a-((cyclopropylsulfonyl)carbamoyl)-7,9-dimethyl-5,16-dioxo-1,2,3,5,6,7,8,9,10,11,13a,14,14a,15,16,16a-hexadecahydrocyclopropa[e]pyrrolo[1,2-a][1,4]diazacyclopentadecin-6-yl)carbamate], for which the EC50 in assay [1] was 4.82 to 103 nM; in assay [2] it was less than 5.46 nM.
For `CC(C)Oc1cc2c(Cl)cccc2c(O[C@@H]2C[C@H]3C(=O)N[C@]4(C(=O)NS(=O)(=O)C5CC5)C[C@H]4/C=C\CC[C@@H](C)C[C@@H](C)[C@H](NC(=O)OC(C)(C)C)C(=O)N3C2)n1` [Compound 1092, tert-butyl ((2R,6S,7R,9R,13aS,14aR,16aS,Z)-2-((5-chloro-3-isopropoxyisoquinolin-1-yl)oxy)-14a-((cyclopropylsulfonyl)carbamoyl)-7,9-dimethyl-5,16-dioxo-1,2,3,5,6,7,8,9,10,11,13a,14,14a,15,16,16a-hexadecahydrocyclopropa[e]pyrrolo[1,2-a][1,4]diazacyclopentadecin-6-yl)carbamate], in that order: less than 5.46 nM and less than 5.46 nM.
